Among the test systems are T-47D breast; HCT-15 colon; HL-60(TB) leukemia; NCI-H226 lung; SW-620 colon; MDA-N; BT-549 breast; TK-10 renal; HCC-2998 colon; 786-0 renal; A549 NSCLC; OVCAR-5 ovarian; HS 578T breast; SR leukemia.
Common to all, as to test: growth of human tumour cells (NCI), 48 h

Among the data in PubChem BioAssay (NCI) are TGI values, retold here.

Each structure is given as a SMILES string.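 Cultured in 96-well plates, cells were exposed to test compound for 48 hours across five concentrations. TGI: concentration producing complete growth inhibition.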

For the molecule `COC(=O)[C@]1(c2cc3ccccc3[nH]2)CC2CN(CC(=O)N(C)OC)C1C1OC(C)(C)OC21` (some centres not stated), the TGI in the assay on T-47D breast was > 100 µM; in the assay on HCT-15 colon, > 100 µM; in the assay with HL-60(TB) leukemia, 51.4 µM; in the assay with NCI-H226 lung, > 100 µM; with SW-620 colon, > 100 µM; with MDA-N, > 100 µM. For the same molecule, the TGI in the assay on BT-549 breast, with TK-10 renal, with HCC-2998 colon, in the assay on 786-0 renal, with A549 NSCLC and with OVCAR-5 ovarian was > 100 µM in each case. Besides, the TGI in the assay on HS 578T breast was > 100 µM.

On to `COC(CNC(=O)C(C)NC(=O)C(C)NC(=O)c1ccccc1)OC` (configuration not stated), for which the TGI with T-47D breast, with HCT-15 colon, with NCI-H226 lung, in the assay on SW-620 colon, in the assay on MDA-N and with BT-549 breast was > 100 µM in each case. Besides, the TGI in the assay with TK-10 renal, in the assay on 786-0 renal, in the assay with SR leukemia, in the assay with A549 NSCLC, in the assay on OVCAR-5 ovarian and in the assay on HS 578T breast was > 100 µM throughout.

Regarding `O=C(c1nsc(Cl)c1Cl)N1CCCCC1`, the TGI in the assay with HCT-15 colon, in the assay with HL-60(TB) leukemia, in the assay on NCI-H226 lung, in the assay with SW-620 colon, with MDA-N and with BT-549 breast was > 100 µM throughout. Also, the TGI with TK-10 renal, in the assay on HCC-2998 colon, in the assay on 786-0 renal, in the assay on SR leukemia, with A549 NSCLC and in the assay on OVCAR-5 ovarian was > 100 µM in each case. For the same molecule, the TGI in the assay on HS 578T breast was > 100 µM.

In the case of `COc1cc(Cn2c3c(c4cc(O)ccc42)C(=O)c2ccccc2C3=O)cc(OC)c1`, the TGI in the assay on T-47D breast is 32.1 µM; with HCT-15 colon, > 100 µM; in the assay on HL-60(TB) leukemia, > 100 µM; with SW-620 colon it was > 100 µM; in the assay with MDA-N, > 100 µM; in the assay on BT-549 breast, 4.86 µM. Moreover, the TGI in the assay with TK-10 renal stood at 34.9 µM; in the assay on HCC-2998 colon it was 37.3 µM; in the assay with 786-0 renal, 10.2 µM; with SR leukemia, 25.2 µM; in the assay on A549 NSCLC, 49.6 µM; in the assay on OVCAR-5 ovarian, 32.9 µM. Moreover, in the assay with HS 578T breast, the TGI is > 100 µM.

Regarding `Cn1ncc2c(NCCc3ccccc3)nc(Cl)nc21`, the TGI was 79.3 µM in the assay with T-47D breast; > 100 µM in the assay with HCT-15 colon; 76.1 µM in the assay on NCI-H226 lung; 89.1 µM in the assay with SW-620 colon; 56.5 µM in the assay with MDA-N; 78.4 µM in the assay with BT-549 breast. Further, the TGI was 65 µM with TK-10 renal; 40.3 µM in the assay on HCC-2998 colon; 64.2 µM in the assay on 786-0 renal; 77.4 µM with A549 NSCLC; 36.4 µM in the assay with OVCAR-5 ovarian; > 100 µM in the assay with HS 578T breast.

Take `COc1cc2cc(C(=O)N3CC(COS(C)(=O)=O)c4c3cc([N+](=O)[O-])c3ccccc43)[nH]c2c(OC)c1OC` (configuration not stated): the TGI with T-47D breast was > 31.6 µM; with HCT-15 colon, > 31.6 µM; in the assay with NCI-H226 lung it was > 100 µM; in the assay on SW-620 colon, > 31.6 µM; in the assay on MDA-N, > 100 µM; in the assay with BT-549 breast, > 31.6 µM. Moreover, the TGI with TK-10 renal, in the assay with HCC-2998 colon, in the assay with A549 NSCLC, with OVCAR-5 ovarian and in the assay on HS 578T breast was > 31.6 µM throughout.

Turning to `Cc1cc2c3c(ccc4ncc(c43)CN2c2ccc(NS(C)(=O)=O)cc2)[nH]1`, the TGI in the assay on HCT-15 colon is > 100 µM; with HL-60(TB) leukemia, > 100 µM; in the assay with NCI-H226 lung, 78.3 µM; in the assay on SW-620 colon, > 100 µM; in the assay with MDA-N, > 100 µM; in the assay on BT-549 breast, > 100 µM. In addition, the TGI with TK-10 renal is 73.1 µM; in the assay on HCC-2998 colon, > 100 µM; in the assay on 786-0 renal it was 23.5 µM; with A549 NSCLC it was 88.5 µM; with OVCAR-5 ovarian it was > 100 µM; in the assay with HS 578T breast, > 100 µM.

As to `COc1cc(/C=C2\NC(=O)N(/C=C3\C(=O)Oc4ccccc4C3=O)C2=O)ccc1O`, the TGI was > 100 µM in the assay with T-47D breast; > 100 µM in the assay on HCT-15 colon; 62 µM in the assay with HL-60(TB) leukemia; > 100 µM in the assay with NCI-H226 lung; > 100 µM in the assay on SW-620 colon; > 100 µM in the assay with MDA-N. The TGI with BT-549 breast, in the assay with TK-10 renal, with HCC-2998 colon, with 786-0 renal, in the assay on A549 NSCLC and in the assay with OVCAR-5 ovarian was > 100 µM in each case. In addition, the TGI in the assay on HS 578T breast is > 100 µM.

For `CC(C)(C)OC(=O)C(C1NC(C(=O)O)C(C)(C)S1)N1C(=O)c2ccccc2C1=O` (configuration not stated), the TGI in the assay with T-47D breast, in the assay on HCT-15 colon, with HL-60(TB) leukemia, with SW-620 colon, in the assay on MDA-N and in the assay on BT-549 breast was > 100 µM throughout. Moreover, the TGI in the assay on TK-10 renal, in the assay with HCC-2998 colon, in the assay on 786-0 renal, in the assay on SR leukemia, with A549 NSCLC and with OVCAR-5 ovarian was > 100 µM each time. For the same molecule, the TGI in the assay with HS 578T breast was > 100 µM.

`O=C(O)/C(=C\c1ccccc1)Cc1ccccc1`: the TGI in the assay on T-47D breast, in the assay on HCT-15 colon, in the assay on HL-60(TB) leukemia, with NCI-H226 lung, in the assay with SW-620 colon and in the assay with MDA-N was > 100 µM in each case. Also, the TGI in the assay on BT-549 breast, in the assay with TK-10 renal, in the assay with HCC-2998 colon, in the assay on 786-0 renal, with A549 NSCLC and with OVCAR-5 ovarian was > 100 µM throughout. Besides, the TGI with HS 578T breast is > 100 µM.

Regarding `COc1cc(CNC(=O)CCCCCCCC/C=C/Br)ccc1O`, the TGI in the assay with T-47D breast, in the assay with HCT-15 colon, in the assay with HL-60(TB) leukemia, in the assay with NCI-H226 lung, in the assay on SW-620 colon and in the assay with MDA-N was > 10 µM in each case. Also, the TGI in the assay on TK-10 renal, in the assay on HCC-2998 colon, with 786-0 renal, with SR leukemia, in the assay with A549 NSCLC and in the assay with HS 578T breast was > 10 µM in each case.
